From patent publication US20230331718A1, “COMPOSITIONS FOR MODULATING SPLICING” (Skyhawk Therapeutics, Inc., priority 2020, published 2023)

Assays:
[1] = test system: SMN2 Splicing D7 (SMN Δ7 transcript); test: SMN Quantitative Splicing Assay (qPCR); assay type: cell-based, human; conditions: 24 h, SMA patient fibroblasts (GM03813), 2.5 µM to 0.6 nM
Protocol: Spinal muscular atrophy (SMA) patient fibroblasts (GM03813, Coriell) were plated in 96-well plates at 50,000 cells/well. […] Treated cells were lysed and cDNA synthesized using the Fast Advanced Cells-to-Ct kit (Thermofisher A35378) according to the manufacturer’s instructions. 2 µL of each cDNA were used in qPCR reactions. […] Reactions were run in a Quant Studio 6 qPCR instrument with default settings.

SMN2 Protein = test: SMN Protein Assay (MSD); assay type: cell-based, human; conditions: SMA patient fibroblasts, 48 hours, 0.6 nM to 2.5 µM
Protocol: Spinal muscular atrophy (SMA) patient fibroblasts were plated in 96-well plates at 7,000 cells/well. Compounds were added in concentrations ranging from 0.6 nM to 2.5 µM, incubated for 48 hours and the cells were lysed with 100 µL of lysis buffer. 20 µL of lysate was used for SMN protein measurement by Mesoscale Discovery (MSD) assay developed by PharmOptima (Michigan). A standard curve prepared with SMN protein ranging from 1 µg/ml to 19.5pg/ml was used in each MSD plate to calculate the absolute SMN protein amount in each sample.

| Structure (SMILES) | IC50 ([1]; Homo sapiens, Fibroblast) | EC50 (SMN2 Protein) | IC50 [1] |
| --- | --- | --- | --- |
| CN(c1cnc(-c2cc3ccn(CC(F)(F)F)c(=O)c3cc2O)nn1)[C@H]1C[C@@H]2CC[C@@H](N2)[C@H]1F [Compound 100] | 16 to 50 nM | 0.01 to 15 nM |  |
| CCc1coc2cc(-c3ncc(N(C)[C@H]4C[C@@H]5CC[C@@H](N5)[C@H]4F)nn3)c(O)cc2c1=O (single isomer, unassigned) [Compound 96] | 0.01 to 15 nM | 0.01 to 15 nM |  |
| CCc1cc(=O)c2cc(-c3ncc(N(C)[C@@H]4C[C@H]5CCCC(N5)[C@@H]4F)nn3)c(O)cc2o1 [Compound 115] | 101 to 500 nM | 16 to 50 nM |  |
| CN(c1cnc(-c2cc3ncn(C)c(=O)c3cc2O)nn1)C1CC2CCCC(N2)C1F (centres unmarked) [Compound 123] | 0.01 to 15 nM | 0.01 to 15 nM |  |
| CN(c1cnc(-c2cc3c(F)cn(C)c(=O)c3cc2O)nn1)[C@H]1C[C@@H]2CC[C@@](C)(N2)[C@H]1F [Compound 187] | 0.01 to 15 nM | 0.01 to 15 nM |  |
| Cc1ncc2cc(O)c(-c3ncc(N(C)[C@H]4CC5CCC(N5)[C@H]4F)nn3)cc2n1 (some centres unmarked) [Compound 40] | 16 to 50 nM | 0.01 to 15 nM |  |
| CN(c1cnc(-c2cc3c(=O)ccoc3cc2O)nn1)[C@H]1CC2CCCC(N2)[C@H]1F (some centres unmarked) [Compound 110] | 51 to 100 nM | 101 to 500 nM |  |
| CN(c1cnc(-c2cc3ccn(C)c(=O)c3cc2O)nn1)[C@H]1C[C@@H]2CC[C@@](C)(N2)[C@H]1F [Compound 171] | 0.01 to 15 nM | 0.01 to 15 nM |  |
| CCn1ccc2cc(-c3ncc(N(C)C4CC5CCC(N5)[C@H]4F)nn3)c(O)cc2c1=O (some centres unmarked) [Compound 34] | 0.01 to 15 nM | 0.01 to 15 nM |  |
| CN(c1cnc(-c2cc3ccn(C)c(=O)c3cc2O)nn1)[C@H]1CC2CC[C@@H](N2)[C@H]1F [Compound 7A] | 0.01 to 15 nM | 0.01 to 15 nM |  |
| CN(c1cnc(-c2cc3cnn(C)c(=O)c3cc2O)nn1)[C@H]1C[C@@H]2CC[C@@](C)(N2)[C@H]1F [Compound 183] | 0.01 to 15 nM | 0.01 to 15 nM |  |
| Cc1cc(=O)c2cc(O)c(-c3ncc(N(C)[C@H]4CC5CCC[C@@H](N5)[C@H]4F)nn3)cc2o1 [Compound 127] | 0.01 to 15 nM | 0.01 to 15 nM |  |
| Cc1nc2cc(-c3ncc(N(C)[C@@H]4CC5CCC(N5)[C@@H]4F)nn3)c(O)cc2c(=O)n1C (some centres unmarked) [Compound 213] | 16 to 50 nM | 0.01 to 15 nM |  |
| Cc1nc2cc(O)c(-c3ncc(N(C)[C@H]4CC5CC[C@@H](N5)[C@H]4F)nn3)cc2nc1C [Compound 85] | 0.01 to 15 nM | 16 to 50 nM |  |
| CN(c1cnc(-c2cc3ncn(C)c(=O)c3cc2O)nn1)C1CC2CC(F)(F)C(C1)N2 (centres unmarked) [Compound 143] |  | 51 to 100 nM | 101 to 500 nM |
| Cc1cnc2cc(O)c(-c3ncc(N(C)[C@@H]4CC5CCC(N5)[C@@H]4F)nn3)cc2n1 (some centres unmarked) [Compound 51] | 51 to 100 nM | 51 to 100 nM |  |
| CCn1ccc2cc(-c3ncc(N(C)C4CC5CCCC(N5)C4F)nn3)c(O)cc2c1=O (centres unmarked) [Compound 122] | 51 to 100 nM | 501 to 10000 nM |  |
| CCc1cc(=O)c2cc(-c3ncc(N(C)[C@H]4C[C@@H]5CCCC(N5)[C@H]4F)nn3)c(O)cc2o1 [Compound 116] | 51 to 100 nM | 16 to 50 nM |  |
| [2H]C([2H])([2H])n1cnc2cc(-c3ncc(N(C)[C@@H]4CC5CC[C@H](N5)[C@@H]4F)nn3)c(O)cc2c1=O [Compound 178] | 0.01 to 15 nM | 0.01 to 15 nM |  |
| CN(c1cnc(-c2cc3oc(C(F)(F)F)cc(=O)c3cc2O)nn1)[C@H]1C[C@@H]2CCCC(N2)[C@H]1F [Compound 166] | 16 to 50 nM | 0.01 to 15 nM |  |
| CCn1ncc2cc(-c3ncc(N(C)[C@H]4C[C@@H]5CCC(N5)[C@H]4F)nn3)c(O)cc2c1=O [Compound 165] | 0.01 to 15 nM | 0.01 to 15 nM |  |
| CN(c1cnc(-c2cc3occc(=O)c3cc2O)nn1)[C@@H]1CC2CCC[C@H](N2)[C@@H]1F [Compound 60] | 16 to 50 nM | 0.01 to 15 nM |  |
| CN(c1cnc(-c2cc3c(F)cn(C)c(=O)c3cc2O)nn1)[C@@H]1CC2CC(F)(F)C(C1)N2 (some centres unmarked) [Compound 209] | 51 to 100 nM | 101 to 500 nM |  |
| CN(c1cnc(-c2cc3cnccc3cc2O)nn1)[C@H]1C[C@@H]2CC[C@@H](N2)[C@H]1F (single isomer, unassigned) [Compound 5B] | 16 to 50 nM | 0.01 to 15 nM |  |

| Structure (SMILES) | IC50 ([1]; Homo sapiens, Fibroblast) | EC50 (SMN2 Protein) | IC50 [1] |
| --- | --- | --- | --- |
| Cc1cc2cc(O)c(-c3ncc(N(C)[C@H]4C[C@@H]5CCCC(N5)[C@H]4F)nn3)cc2cn1 [Compound 78] | 0.01 to 15 nM | 0.01 to 15 nM |  |
| Cc1cnc2cc(O)c(-c3ncc(N(C)[C@H]4CC5CCCC(N5)[C@H]4F)nn3)cc2n1 (some centres unmarked) [Compound 160] | 101 to 500 nM | 101 to 500 nM |  |
| CN(c1cnc(-c2cc3ccn(C(F)F)c(=O)c3cc2O)nn1)[C@H]1CC2CCC(N2)[C@H]1F (some centres unmarked) [Compound 155] | 0.01 to 15 nM | 0.01 to 15 nM |  |
| CN(c1cnc(-c2cc3occc(=O)c3cc2O)nn1)[C@H]1C[C@@H]2CCCC(N2)[C@H]1F [Compound 63] | 16 to 50 nM | 0.01 to 15 nM |  |
| CN(c1cnc(-c2cc3ccn(C)c(=O)c3cc2O)nn1)[C@@H]1C[C@H]2CCC(N2)[C@@H]1F [Compound 7B] | 16 to 50 nM | 0.01 to 15 nM |  |
| CCn1cnc2cc(-c3ncc(N(C)C4CC5CCC(N5)[C@@H]4F)nn3)c(O)cc2c1=O (some centres unmarked) [Compound 31] | 51 to 100 nM | 51 to 100 nM |  |
| CNC(=O)c1ccc2cc(-c3ncc(N(C)[C@@H]4C[C@H]5CC[C@@H](C4)N5)nn3)c(O)cc2n1 [Compound 9] |  | 0.01 to 15 nM |  |
| CN(c1cnc(-c2cc3ncn(C)c(=O)c3cc2O)nn1)[C@H]1CC2CCC(N2)[C@H]1F (single isomer, unassigned) [Compound 3B] | 0.01 to 15 nM | 0.01 to 15 nM |  |
| CN(c1cnc(-c2cc3occc(=O)c3cc2O)nn1)[C@H]1C[C@]2(C)CC[C@@](C)(N2)[C@H]1F [Compound 62] | 0.01 to 15 nM | 0.01 to 15 nM |  |
| CN(c1cnc(-c2cc3occc(=O)c3cc2O)nn1)[C@H]1C[C@]2(C)CCC[C@@](C)(N2)[C@H]1F [Compound 64] | 0.01 to 15 nM | 0.01 to 15 nM |  |
| CN(c1cnc(-c2cc3ncn(C)c(=O)c3cc2O)nn1)C1CC2CC(F)(F)C(C1)N2 (centres unmarked) [Compound 144] |  | 0.01 to 15 nM | 0.01 to 15 nM |
| Cc1cc(=O)c2cc(-c3ncc(N(C)[C@H]4C[C@@H]5CC[C@@H](N5)[C@H]4F)nn3)c(O)cc2o1 (single isomer, unassigned) [Compound 1B] | 16 to 50 nM | 0.01 to 15 nM |  |
| [2H]C([2H])([2H])n1ncc2cc(-c3ncc(N(C)[C@@H]4CC5CC[C@H](N5)[C@@H]4F)nn3)c(O)cc2c1=O [Compound 182] | 0.01 to 15 nM | 0.01 to 15 nM |  |
| CCC1C[C@@H](N(C)c2cnc(-c3cc4oc(C(F)(F)F)c(C)c(=O)c4cc3O)nn2)[C@@H](F)[C@H](C)N1 (some centres unmarked) [Compound 79] | 101 to 500 nM | 16 to 50 nM |  |
| CN(c1cnc(-c2cc3c(=O)ccoc3cc2O)nn1)[C@@H]1CC2CCCC(N2)[C@@H]1F (some centres unmarked) [Compound 109] | 501 to 10000 nM | 501 to 10000 nM |  |
| CN(c1cnc(-c2cc3cccnc3cc2O)nn1)C1CC2CCC(N2)[C@H]1F (some centres unmarked) [Compound 24] | 16 to 50 nM | 16 to 50 nM |  |
| CN(c1cnc(-c2cc3cnn(C)c(=O)c3cc2O)nn1)C1CC2CCCC(N2)C1F (centres unmarked) [Compound 131] |  | 0.01 to 15 nM | 0.01 to 15 nM |
| CN(c1cnc(-c2cc3c(F)cn(C)c(=O)c3cc2O)nn1)[C@H]1C[C@]2(C)CCC(N2)[C@H]1F [Compound 38] | 0.01 to 15 nM | 0.01 to 15 nM |  |
| [2H]C([2H])([2H])N(c1cnc(-c2cc3ncn(C([2H])([2H])[2H])c(=O)c3cc2O)nn1)[C@H]1C[C@@H]2CCC(N2)[C@H]1F [Compound 175] | 0.01 to 15 nM | 0.01 to 15 nM |  |
| CN(c1cnc(-c2cc3c(F)cn(C)c(=O)c3cc2O)nn1)[C@@H]1CC2COCC(N2)[C@@H]1F (some centres unmarked) [Compound 219] | 16 to 50 nM |  |  |
| CCn1cc(F)c2cc(-c3ncc(N(C)[C@@H]4CC5COCC(N5)[C@@H]4F)nn3)c(O)cc2c1=O (some centres unmarked) [Compound 222] | 101 to 500 nM |  |  |
| CN(c1cnc(-c2cc3c(F)cn(C)c(=O)c3cc2O)nn1)[C@H]1CC2COCC(N2)[C@H]1F (some centres unmarked) [Compound 218] | 51 to 100 nM |  |  |
| CCn1cc(F)c2cc(-c3ncc(N(C)[C@H]4CC5COCC(N5)[C@H]4F)nn3)c(O)cc2c1=O (some centres unmarked) [Compound 221] | 501 to 10000 nM |  |  |
